Literature values, collected in article PMC6234229, “The role of loops B and C in determining the potentiation of GABAA receptors by midazolam” (Pharmacology Research & Perspectives, 2018).

What was measured:
[1] = tested on: α3β1γ2 receptors; parameters: method as in PMID 1646944, PMID 8381510; conditions: cited from earlier work
[2] = tested on: α6‐containing GABAA receptors; conditions: cited from earlier work

SMILES	potentiation of α3β1γ2 vs α1β1γ2 receptors [1]	potentiation of α6‐ vs α3‐containing GABAA receptors [2]
CN1C(=O)CN=C(c2ccccc2)c2cc(Cl)ccc21 [diazepam]	potentiated α3β1γ2 receptors more than α1β1γ2 receptors	
CC#CCOC(=O)c1c(C)nc2sc3c(c2c1N)CCC(O)C3 (stereo not drawn) [SB‐205384]		potentiate α6‐containing GABAA receptors even more strongly than α3
CN1C(=O)CN=C(c2ccccc2F)c2cc([N+](=O)[O-])ccc21 [flunitrazepam]	potentiated α3β1γ2 receptors more than α1β1γ2 receptors	
